Results as given in US12414960B2, “Analogues of oleuropein and oleacein and uses thereof” (Attica Sciences Ltd., priority 2020, dated 2025).

How the values were obtained:
[1] = ABTS radical cation scavenging assay; assay type: biochemical; details: NS = not statistically significant
Text: The method of estimating antioxidant capacity, based on the ability to interact with the ABTS.+ radical cation was first performed by Miller et al. in 1993 (Miller, Nicholas et al., Clinical Science, 1993, 84: 407-412, “A novel method for measuring the antioxidant capacity and its application to monitoring the antioxidant status in premature neonates”). The mechanism of interaction of the antioxidant agents to be examined with the ABTS.+ radical is similar to that of the DPPH. radical, which can be inactivated either by the addition of an electron or by the addition of a hydrogen atom. However, unlike the DPPH. radical, which is a stable radical from the beginning, the ABTS.+ radical must be produced by the oxidation of ABTS. Thus, in order to estimate the antioxidant capacity of a substance, the formation of the ABTS.+ radical must first precede and the addition of the substance to be examined must follow. The addition of the antioxidant agent is performed after the production of the root ABTS.+ to avoid the interaction of the antioxidant agents with the oxidizing agents used for the oxidation of ABTS.
The oxidation of ABTS takes place either through chemical reactions with various reagents or through the action of enzymes such as peroxidases. The ABTS.+ radical from the moment it is formed is stable, has a green color and absorbs at 730 nm. When a substance with antioxidant activity is added to the solution, then the ABTS.+ radical is reduced by the addition of a hydrogen (or electron) atom, resulting in reduced visual absorption.
To assess the antioxidant capacity of the samples, the oxidation of ABTS was performed enzymatically through the action of horseradish peroxidase (HRP), in the presence of H2O2 (FIG. 3)
The anti-oxidant capacity of the GS compounds was evaluated by performing the ABTS assay as previously described (Kouka, Paraskevi et al., Oxid Med Cell Longev. 2019, Article ID 1870965). Briefly, in a total reaction volume of 1 mL in distilled water (dH2O), ABTS.^+ (1 mM), H2O2 (30 μM), and horseradish peroxidase (HRP) (6 μM) in 50 mM phosphate-buffered saline were added. The solution was incubated for 45 min at room temperature (RT) in the dark. Finally, 10 μL of the tested GS compound at various concentrations was added, and the absorbance was monitored on a Hitachi U-1900 radio beam spectrophotometer (serial no. 2023-029; Hitachi Ltd.) at 730 nm. In each experiment, a blank without the HRP was used, while the ABTS.^+ radical solution without the extract was used as the control. The RSC percentage of the tested extracts was calculated using the following equation: RSC (%)=[(ODcontrol−ODcompound)/ODcontrol]×100, where ODcontrol and OD sample are the optical density (OD) values of the control and the test sample, respectively.

[2] = system: MKN-45 gastric cancer cells; assay: XTT cell growth assay, MKN-45; assay type: cell-based, human; details: NS = not statistically significant; for inhibition at 50 µM: Homo sapiens, MKN-45, 24 h, read-out: Effectiveness to suppress MKN-45 cell growth (cell growth inhibition)

Row | Compound | ABTS Radical Cation Scavenging Assay IC50 [1] [μg extract/mL] | inhibition at 50 µM [2] [%] | Effectiveness to suppress MKN-45 cell growth (cell growth inhibition) ([2]; 50 uM, 24 h)
1 | C/C=C1/[C@H](OC2OC(CO)C(O)C(O)C2O)OC=C(C(=O)O)[C@H]1CC(=O)OCCc1ccc(O)c(O)c1 (stereo in doubt) [GS6, (2S,4S,E)-4-(2-(3,4-dihydroxyphenethoxy)-2-oxoethyl)-3-ethylidene-2{[(2R,3S,4R,5R,6S)-3,4,5-trihydroxy-6-(hydroxymethyl)tetrahydro-2H-pyran-2-yl]oxy}-3,4dihydro-2H-pyran-5-carboxylic acid] | 8.2 |  | 
2 | C/C=C(/C=O)[C@@H](CC=O)CC(=O)OCCc1ccc(O)cc1 [GS19, (3S,4E)-4-formyl-3-(2-oxoethyl)-4-hexenoic acid 2-(4-hydroxyphenyl)ethyl ester, reference compound] | 38 | 44.4 | 
3 | C/C=C1/[C@H](O[C@@H]2O[C@H](CO)[C@@H](O)[C@H](O)[C@H]2O)OC=C(C(=O)OC)[C@H]1CC(=O)OCCc1ccc(O)c(O)c1 [GS1, oleuropein] | 20.9 |  | 
4 | C/C=C(/C=O)[C@@H](CC=O)CC(=O)OCCCSC [GS28, (3S,4E)-4-formyl-3-(2-oxoethyl)-4-hexenoic acid 3-(methylthio)propyl ester] |  | 95 | highly effective
5 | C/C=C(/C=O)[C@@H](CC=O)CC(=O)OCCOc1ccccc1 [GS24, (3S,4E)-4-formyl-3-(2-oxoethyl)-4-hexenoic acid 2-phenoxyethyl ester] |  | 35.4 | 
6 | C/C=C(/C=O)[C@@H](CC=O)CC(=O)OCCc1ccc(O)c(O)c1 [GS17, (3S,4E)-4-formyl-3-(2-oxoethyl)-4-hexenoic acid 2-(3,4-dihydroxyphenyl)ethyl ester, reference compound] | 8 |  | 
